Some test systems named below: NCI-H23 lung; OVCAR-3 ovarian; RPMI-8226 leukemia; MDA-MB-231 breast; RXF 393 renal; T-47D breast; UO-31 renal; HS 578T breast.
What all share (assay): growth of human tumour cells (NCI), 48 h

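Five concentrations, 48 hours, 96-well plates. GI50 marks 50% less growth. At the TGI there is no net growth.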 Where only a bound is given, the exact number is not on record here.

Regarding `C#CC#CC#CC#CC#CC#CC#CC#CCC1OC[C@H](COC(=O)O[C@@H](C(=O)O[C@H]2C[C@@]3(O)[C@@H](OC(=O)c4ccccc4)[C@@H]4[C@]5(OC(C)=O)CO[C@@H]5C[C@H](O)[C@@]4(C)C(=O)[C@H](OC(C)=O)C(=C2C)C3(C)C)[C@@H](NC(=O)c2ccccc2)c2ccccc2)O1` (some centres not stated), the GI50 with NCI-H23 lung was 0.888 µM; with OVCAR-3 ovarian, 0.17 µM; in the experiment on RPMI-8226 leukemia, 0.114 µM; in the experiment on MDA-MB-231 breast it was 1.27 µM; in the experiment on RXF 393 renal, 1.25 µM; in the experiment on T-47D breast it was 0.516 µM. Moreover, the values for the GI50 in the experiment on UO-31 renal and in the experiment on HS 578T breast were greater than 33.3 µM and 0.297 µM, respectively. Besides, the TGI in the experiment on NCI-H23 lung was greater than 33.3 µM; in the experiment on OVCAR-3 ovarian, greater than 33.3 µM; in the experiment with RPMI-8226 leukemia, greater than 33.3 µM; in the experiment on MDA-MB-231 breast, greater than 33.3 µM; in the experiment on RXF 393 renal, greater than 15.3 µM; with T-47D breast, greater than 33.3 µM. For the same molecule, the TGI with UO-31 renal was greater than 33.3 µM; with HS 578T breast, greater than 17.3 µM.

Take `C=C(C(=O)OC)[C@@H]1C[C@@H](O)[C@]2(C)CC/C=C(\C)CCC[C@H](C)[C@H](O)C1O2`: the GI50 with NCI-H23 lung is 80.6 µM; in the experiment with OVCAR-3 ovarian, 31.3 µM; in the experiment on RPMI-8226 leukemia it was 27.6 µM; in the experiment with MDA-MB-231 breast, 58.5 µM; in the experiment with RXF 393 renal, 53.3 µM; in the experiment with T-47D breast, 52.8 µM. For the same molecule, the GI50 was 52.8 µM in the experiment on UO-31 renal and 32.8 µM in the experiment on HS 578T breast. For the same molecule, the TGI is greater than 100 µM with NCI-H23 lung; 92.7 µM in the experiment with OVCAR-3 ovarian; 59 µM with RPMI-8226 leukemia; greater than 100 µM in the experiment on MDA-MB-231 breast; greater than 100 µM with RXF 393 renal; greater than 100 µM in the experiment with T-47D breast. The TGI in the experiment with UO-31 renal and with HS 578T breast was greater than 100 µM throughout.

In the case of `Cc1[nH]nc(C(=O)Nc2n[nH]c3ccccc23)c1[N+](=O)[O-]`, the GI50 in the experiment with NCI-H23 lung was greater than 66.9 µM; in the experiment on OVCAR-3 ovarian it was greater than 100 µM; in the experiment with RPMI-8226 leukemia, greater than 71.5 µM; in the experiment on MDA-MB-231 breast it was greater than 100 µM; in the experiment on RXF 393 renal it was greater than 100 µM; with T-47D breast, greater than 100 µM. The GI50 in the experiment with UO-31 renal is greater than 100 µM; with HS 578T breast it was greater than 68.7 µM. In addition, the TGI with NCI-H23 lung, with OVCAR-3 ovarian, in the experiment with RPMI-8226 leukemia, in the experiment with MDA-MB-231 breast, in the experiment on RXF 393 renal and with T-47D breast was greater than 100 µM in each case. Also, the TGI with UO-31 renal and in the experiment with HS 578T breast was greater than 100 µM each time.

Turning to `O=C1C(=O)c2c(nc3ncccn23)-c2ccccc21`, the GI50 with NCI-H23 lung is 0.193 µM; with OVCAR-3 ovarian it was 0.204 µM; in the experiment on RPMI-8226 leukemia it was 0.198 µM; in the experiment with MDA-MB-231 breast, 0.215 µM; in the experiment on RXF 393 renal, 0.497 µM; in the experiment with T-47D breast, 0.264 µM. Moreover, the GI50 with UO-31 renal was 0.187 µM; in the experiment with HS 578T breast it was 0.244 µM. Moreover, the TGI in the experiment on NCI-H23 lung was 0.432 µM; in the experiment on OVCAR-3 ovarian, 0.5 µM; in the experiment on RPMI-8226 leukemia it was 0.602 µM; in the experiment on MDA-MB-231 breast, 0.67 µM; in the experiment with RXF 393 renal, 0.967 µM; in the experiment on T-47D breast it was 1.02 µM. Further, the TGI in the experiment on UO-31 renal turned out to be 0.405 µM; in the experiment with HS 578T breast, 0.631 µM.

Turning to `CC(C)(C)c1nnc2n(c1=O)N=CC(c1ccc(Br)cc1)S2` (configuration not stated), the GI50 with NCI-H23 lung is 19.8 µM; in the experiment with OVCAR-3 ovarian it was 21.8 µM; in the experiment with RPMI-8226 leukemia, 25.6 µM; in the experiment with MDA-MB-231 breast, 24.5 µM; in the experiment with RXF 393 renal, 23.6 µM; in the experiment with T-47D breast it was 23.8 µM. Further, the GI50 with UO-31 renal is 20.7 µM; in the experiment with HS 578T breast, 35.2 µM. The TGI in the experiment with NCI-H23 lung is 46.8 µM; in the experiment with OVCAR-3 ovarian, 70.8 µM; in the experiment with RPMI-8226 leukemia it was greater than 100 µM; in the experiment on MDA-MB-231 breast, 48.1 µM; with RXF 393 renal, 82.5 µM; in the experiment with T-47D breast, greater than 100 µM. In addition, the TGI is 47.4 µM with UO-31 renal and 91.1 µM with HS 578T breast.

In the case of `COc1cccc(C2C(C#N)=C(N)Oc3cc(OC)ccc32)c1` (configuration not stated), the GI50 with NCI-H23 lung was 0.0415 µM; in the experiment on OVCAR-3 ovarian, 0.0244 µM; in the experiment on RPMI-8226 leukemia, 0.0372 µM; in the experiment on MDA-MB-231 breast, 0.0519 µM; in the experiment with RXF 393 renal, 0.026 µM; in the experiment on T-47D breast it was 0.0437 µM. Moreover, the GI50 is 0.0572 µM with UO-31 renal and 0.0279 µM in the experiment on HS 578T breast. Further, the TGI with NCI-H23 lung is greater than 33 µM; in the experiment on OVCAR-3 ovarian, 1.18 µM; in the experiment with RPMI-8226 leukemia, 23.7 µM; with MDA-MB-231 breast, 1.49 µM; with RXF 393 renal, 81.1 µM; with T-47D breast it was 63.3 µM. Also, the TGI with UO-31 renal was found to be 31.1 µM; with HS 578T breast it was 10.3 µM.

`Clc1ccc(-c2cn(-c3ccccc3)c(-c3ccccc3)n2)c(Cl)c1`: the GI50 with NCI-H23 lung was greater than 16.2 µM; with OVCAR-3 ovarian it was 0.861 µM; with RPMI-8226 leukemia, 4.93 µM; in the experiment with MDA-MB-231 breast it was 23 µM; in the experiment on RXF 393 renal it was 2.11 µM; in the experiment on T-47D breast it was 2.52 µM. Moreover, the GI50 in the experiment on UO-31 renal is 10.2 µM; with HS 578T breast, 1.27 µM. Further, the TGI in the experiment on NCI-H23 lung was greater than 50 µM; with OVCAR-3 ovarian it was 1.73 µM; in the experiment on RPMI-8226 leukemia, greater than 10.2 µM; in the experiment on MDA-MB-231 breast it was greater than 50 µM; in the experiment with RXF 393 renal, 11.9 µM; with T-47D breast it was greater than 50 µM. The TGI was greater than 50 µM in the experiment with UO-31 renal and 6.02 µM with HS 578T breast.

These data come from PubChem BioAssay (NCI).
